The results in this text go back to patent US20050272040A1, “Method for increasing synaptic growth or plasticity” (priority 2002, published 2005).

The test system of the assay is hippocampal cells. Nature of the assay: Real-time RT-PCR of genes induced by neurotrophin treatment of hippocampal cultures. Format: cell-based, rat. Conditions: 50 ng/mL, RT-PCR vs control, average ± standard error. On the procedure: The molecular genetics underlying BDNF-evoked plasticity were examined by expression profiling using cDNA microarrays on a population of hippocampal cells in vitro. Synaptic effects of BDNF are observed within 20 minutes of exposure (Levine et al. (1996) supra; Lessmann and Heumann (1998) supra; Schinder et al. (2000) supra). A 3-hour BDNF treatment has been used to identify several genes with roles in synaptic plasticity (Thakker-Varia et al. (2001) supra). Consequently, to reveal immediate, as well as downstream transcriptional changes, both acute (20 minutes) and longer treatment (3 hours) with BDNF were used herein. […] Two independent Atlas arrays were performed using RNA from hippocampal cells treated for either 20 minutes or 3 hours of BDNF (50 ng/mL) and control sister cultures.
Of those genes selected, the regulation of 7% at 20 minutes and 40% at 3 hours were validated, although the magnitude of regulation was not always identical to that observed on the microarray. To focus on genes specifically involved in plasticity, a related neurotrophin, nerve growth factor (NGF), not inducing synaptic plasticity (Levine et al. (1996) supra), served as a control.
Time-mated pregnant rats were sacrificed by CO2 asphyxiation in accordance with institutional guidelines for care and use of animals. Fetuses were removed by caesarean section and transferred to a sterile petri dish with phosphate-buffered saline. Fetal hippocampi were dissected from surrounding brain tissue and meninges were completely removed. Low-density cultures of dissociated embryonic day 18 rat hippocampi (Sprague Dawley from Hilltop Laboratories, Scottsdale, Pa.) were prepared using standard methods (Thakker-Varia et al. (2001) supra). Briefly, pooled tissue from each litter was mechanically dissociated in nutrient medium containing 7.5% fetal bovine serum and plated on poly-D-lysine-coated culture dishes at 350,000 cells/dish. Cultures were maintained in serum-free medium (Thakker-Varia et al., 2001) for 10-14 days and contained pure neurons.
Total cellular RNA was prepared from neuronal cultures treated with either BDNF (50 ng/ml) or vehicle (water) for either 20 min or 3 hr by the guanidine isothiocyanate method and CsCl gradients (Thakker-Varia et al., 2001). DNAse-treated total RNA was prepared from neurotrophin or control hippocampal cultures and reverse transcribed using gene specific primers. Radioactively labeled probes were then hybridized to Atlas Arrays Rat 1.2 (Clontech, Palo Alto, Calif.) according to manufacturer's protocol. Arrays were performed in duplicate with an independent source of RNA. The hybridization pattern was analyzed on a phosphorimager and normalized to the global hybridization signal. Analysis was performed by Clontech using 1.7-fold change as criteria for significance. All transcriptional changes were confirmed by real time RT-PCR on independent samples (see below).
cDNA (100 μl) was prepared from 2 μg control or BDNF-treated RNA using random primers and Superscript II reverse transcriptase. 25 μl PCR reactions were then carried out using gene specific primers designed by Primer Express software and TaqMan MGB probes (Applied Biosystems 7000 Sequence Detection System, Foster City, Calif.). Duplicate wells were included for each condition and primer pair. Primers specific to the housekeeping gene, glyceraldehyde-3-phosphate dehydrogenase (GAPDH) were used as an internal control. Data analysis was performed according to the protocol provided by Applied Biosystems.

As to “BDNF: neurotrophin, 50 ng/ml, Preprotech; induces synaptic plasticity in hippocampal neurons”, under “3 Hour BDNF Treatment”, the “Fold Change Arc” value turned out to be 34.8 ± 4.3 fold, the “Fold Change CyclinD1” value is given as 3.3 ± 0.5 fold, the “Fold Change EGR1” value turned out to be 6.6 ± 0.9 fold and the “Fold Change Fra2” value is given as 2.3 ± 0.4 fold. Also, for the setting “3 Hour BDNF Treatment”, the “Fold Change Kv + 1.1” value is on record as 1.4 ± 0.1 fold, the “Fold Change Na + ch” value came out at 1.8 ± 0.2 fold, the “Fold Change PTP1B” value came out at 1.4 ± 0.1 fold and the “Fold Change SSTR4” value was found to be 1.7 ± 0.1 fold. Where the note is “3 Hour BDNF Treatment”, the “Fold Change SgII” value turned out to be 5.1 ± 1.2 fold, the “Fold Change VGF” value amounted to 6.5 ± 1.5 fold and the “Fold Change c-fos” value is on record as 2.3 ± 0.4 fold. For the same substance, where the note is “3 Hour BDNF Treatment, n = 5”, the “Fold Change NPY” value stood at 1.9 ± 0.3 fold and the “Fold Change UNC5H2” value is 2.2 ± 0.6 fold. Where the note is “20 Minute BDNF Treatment”, the “Fold Change Arc” value was 13.7 ± 5.0 fold, the “Fold Change EGR1” value worked out at 4.3 ± 0.8 fold and the “Fold Change c-fos” value was found to be 2.2 ± 0.4 fold.
